Key:
Type in all cases: in vivo, human
amyloidosis = experiment: Example 1: patient with amyloidosis treated with rhodamine 6G; settings: Patient V
Procedure: Patient V. Diagnosis: amyloidosis. The patient felt lethargic and “under the weather”. […] The first course of treatment with the preparation consisted of 15 drops of a 1% solution in a glass of water three times a day by mouth, at the evening meal in addition a microenema of 10 drops of a 1% solution in 30 ml of water, and at night a 1% suppository containing the preparation. […] By the third week after the start of treatment the patient's condition had improved. In the words of relatives, the patient was “feeling better”. […] Blood analyses against the treatment background were normal.

[1] = tested on: Primary cancer of the liver; experiment: Example 5: patient with primary liver cancer treated with rhodamine 6G; design: Nuclear segments / Erythrocytes / Hemoglobin / Thrombocytes / Leukocytes / Amylase / Chlorine / Serum iron / Cholesterol / Total bilirubin / Bilirubin (line r8, above 'direct'): unit not given here; settings: for Creatinine / Cholesterol / Total bilirubin / Potassium / ALT / AST / Bilirubin (line r8, above 'direct') / Serum iron / Total protein / Amylase / Chlorine / LDG / Bilirubin (line r10, above 'indirect') / direct (line r9) / indirect (line r11) / Phosphatase, alk. / Erythrocytes / Hemoglobin / Leukocytes / Thrombocytes / Basophils / Eosinophils / Nuclear rods / ESR / Monocytes / Lymphocytes / Nuclear segments: Example 5, Patient L; for Cholesterol: normal 1.66-8.3; for Total bilirubin: normal 2.90-6.54; for Potassium: normal 3.5-6.0; for ALT / AST: normal 5-40; for Bilirubin (line r8, above 'direct'): normal 8.5-20.5; for Serum iron: normal 8.8-27.0; for Total protein: normal 65.0-85.0; for Amylase: normal 95-110.0; for Chlorine: normal 135.0-; for LDG: normal 225-450; for Bilirubin (line r10, above 'indirect') / direct (line r9): normal up to 25%; for indirect (line r11): normal up to 100; for Phosphatase, alk.: normal up to 104; for Basophils: normal 0-1%; for Eosinophils: normal 0-5; for Nuclear rods: normal 1-6%; for ESR: normal 1-15 mm/hr; for Monocytes: normal 2-9%; for Lymphocytes: normal 18-40%; for Nuclear segments: normal 45-70
Procedure: Patient […]. Diagnosis: Primary cancer of the liver. One and a half years before, resection of part of the right hepatic lobe on account of liver cell carcinoma. Patient complained of pain in the right hypochondrium, dyspnea, ascites, intermittent retention of stools. Patient's condition moderately severe, loss of appetite, jaundice. […] The patient underwent bougienation of the umbilical vein. […] Subsequent procedures were carried out in exactly the same way twice a week. Only the preparation was administered intravenously. The course of treatment lasted 3 months. During the treatment the tumor in the affected region decreased in size to 0.5×0.7 cm. After 4 months a connective tissue scar of size 0.2×0.3 cm remained at the site of the tumor in the liver.

[2] = tested on: Adenocarcinoma of the prostate; experiment: Example 7: patient with prostate adenocarcinoma treated with rhodamine 6G; settings: Patient Sh., 55
Procedure: The patient presented complaining of a sharp pain when urinating and of retention and reddish color of the urine. On examination: Ultrasound scan—prostate approximately 85 cm^3, tumor with irregular contours, 34×40 mm^2 in size. PSA-49.9 […].
Needle biopsy—adenocarcinoma of the prostate.
Diagnosis: Adenocarcinoma of the prostate. The patient refused surgical intervention and chemotherapy.
At night a suppository containing 2% of the preparation was administered.

**Q.** Which results are given for “9-(2-ethoxycarbonyl)phenyl)-3,6-bis(ethylamino)2,7-dimethylxanthyl chloride [rhodamine 6G]”?
**A.** blood analyses against the treatment background (amyloidosis): normal; patient's condition (amyloidosis; 73, first week, 1% solution oral, microenema, 1% suppository): basically no change; patient's condition (amyloidosis; one year after treatment): significantly improved; patient's condition (amyloidosis; third week after start of treatment): improved; amyloid foci in the brain, CT scan (amyloidosis; three months after start of treatment): reduction of amyloid foci in the brain; Creatinine ([1]; 04 Feb. 2005): 79 µM; Cholesterol ([1]; 04 Feb. 2005): 5.75; Total bilirubin ([1]; 04 Feb. 2005): 8.4; Potassium ([1]; 04 Feb. 2005): 2.28; ALT ([1]; 04 Feb. 2005): 154.2 el; AST ([1]; 04 Feb. 2005): 103.8 el; Bilirubin (line r8, above 'direct') ([1]; 04 Feb. 2005): 3.3; Serum iron ([1]; 04 Feb. 2005): 94.4; Total protein ([1]; 04 Feb. 2005): 78; Amylase ([1]; 04 Feb. 2005): 102.8; Chlorine ([1]; 04 Feb. 2005): 114.31; LDG ([1]; 04 Feb. 2005): 332 el; Bilirubin (line r10, above 'indirect') ([1]; 04 Feb. 2005): 84%; direct (line r9) ([1]; 04 Feb. 2005): 5.1%; indirect (line r11) ([1]; 04 Feb. 2005): 89 el; Phosphatase, alk. ([1]; 04 Feb. 2005): 4.55 el; Creatinine ([1]; 07 Apr. 2005): 67 µM; Cholesterol ([1]; 07 Apr. 2005): 7.03; Total bilirubin ([1]; 07 Apr. 2005): 8.0; Potassium ([1]; 07 Apr. 2005): 2.15; ALT ([1]; 07 Apr. 2005): 40 el; AST ([1]; 07 Apr. 2005): 30.4 el; Bilirubin (line r8, above 'direct') ([1]; 07 Apr. 2005): 2.0; Serum iron ([1]; 07 Apr. 2005): 43.7; Total protein ([1]; 07 Apr. 2005): 64.34; Amylase ([1]; 07 Apr. 2005): 110.0; Chlorine ([1]; 07 Apr. 2005): 134.2; LDG ([1]; 07 Apr. 2005): 362 el; Bilirubin (line r10, above 'indirect') ([1]; 07 Apr. 2005): 90%; direct (line r9) ([1]; 07 Apr. 2005): 6.0%; indirect (line r11) ([1]; 07 Apr. 2005): 78.0 el; Phosphatase, alk. ([1]; 07 Apr. 2005): 6.7 el; Creatinine ([1]; 10 Nov. 2004): 98 µM; Cholesterol ([1]; 10 Nov. 2004): 6.21; Total bilirubin ([1]; 10 Nov. 2004): 11.0; Potassium ([1]; 10 Nov. 2004): 2.72; ALT ([1]; 10 Nov. 2004): 665.8 el; AST ([1]; 10 Nov. 2004): 554.5 el; Bilirubin (line r8, above 'direct') ([1]; 10 Nov. 2004): 3.0; Serum iron ([1]; 10 Nov. 2004): 190.4; Total protein ([1]; 10 Nov. 2004): 43.43; Amylase ([1]; 10 Nov. 2004): 114.0; Chlorine ([1]; 10 Nov. 2004): 114.20; LDG ([1]; 10 Nov. 2004): 879 el; Bilirubin (line r10, above 'indirect') ([1]; 10 Nov. 2004): 82%; direct (line r9) ([1]; 10 Nov. 2004): 8.0%; indirect (line r11) ([1]; 10 Nov. 2004): 107.2 el; Phosphatase, alk. ([1]; 10 Nov. 2004): 5.71 el; Erythrocytes ([1]; 12 Nov. 2004): 3.22; Hemoglobin ([1]; 12 Nov. 2004): 74; Leukocytes ([1]; 12 Nov. 2004): 7.2; Thrombocytes ([1]; 12 Nov. 2004): 315; Basophils ([1]; 12 Nov. 2004): 1%; Eosinophils ([1]; 12 Nov. 2004): 1; Nuclear rods ([1]; 12 Nov. 2004): 1%; ESR ([1]; 12 Nov. 2004): 3.5 mm/hr; Monocytes ([1]; 12 Nov. 2004): 15%; Lymphocytes ([1]; 12 Nov. 2004): 9%; Nuclear segments ([1]; 12 Nov. 2004): 21; Erythrocytes ([1]; 14 Feb. 2005): 4.37; Hemoglobin ([1]; 14 Feb. 2005): 117; Leukocytes ([1]; 14 Feb. 2005): 5.8; Thrombocytes ([1]; 14 Feb. 2005): 286; Eosinophils ([1]; 14 Feb. 2005): 2; Monocytes ([1]; 14 Feb. 2005): 4%; Lymphocytes ([1]; 14 Feb. 2005): 23%; Nuclear segments ([1]; 14 Feb. 2005): 63; Erythrocytes ([1]; 17 Apr. 2006): 4.67; Hemoglobin ([1]; 17 Apr. 2006): 123; Leukocytes ([1]; 17 Apr. 2006): 6.7; Thrombocytes ([1]; 17 Apr. 2006): 310; Basophils ([1]; 17 Apr. 2006): 1%; Eosinophils ([1]; 17 Apr. 2006): 1; ESR ([1]; 17 Apr. 2006): 8.5 mm/hr; Monocytes ([1]; 17 Apr. 2006): 9%; Lymphocytes ([1]; 17 Apr. 2006): 37%; Nuclear segments ([1]; 17 Apr. 2006): 65; Erythrocytes ([1]; 19 Jan. 2005): 3.60; Hemoglobin ([1]; 19 Jan. 2005): 80; Leukocytes ([1]; 19 Jan. 2005): 7.8; Thrombocytes ([1]; 19 Jan. 2005): 362; Eosinophils ([1]; 19 Jan. 2005): 2; Nuclear rods ([1]; 19 Jan. 2005): 1%; Monocytes ([1]; 19 Jan. 2005): 4.3%; Lymphocytes ([1]; 19 Jan. 2005): 16%; Nuclear segments ([1]; 19 Jan. 2005): 44; Creatinine ([1]; 20 Dec. 2005): 83 µM; Cholesterol ([1]; 20 Dec. 2005): 5.62; Total bilirubin ([1]; 20 Dec. 2005): 24.2; Potassium ([1]; 20 Dec. 2005): 2.32; ALT ([1]; 20 Dec. 2005): 426 el; AST ([1]; 20 Dec. 2005): 432.9 el; Bilirubin (line r8, above 'direct') ([1]; 20 Dec. 2005): 22.3; Serum iron ([1]; 20 Dec. 2005): 224.7; Total protein ([1]; 20 Dec. 2005): 49.90; Amylase ([1]; 20 Dec. 2005): 140; Chlorine ([1]; 20 Dec. 2005): 115.3; LDG ([1]; 20 Dec. 2005): 556 el; Bilirubin (line r10, above 'indirect') ([1]; 20 Dec. 2005): 96%; direct (line r9) ([1]; 20 Dec. 2005): 11.9%; indirect (line r11) ([1]; 20 Dec. 2005): 102 el; Phosphatase, alk. ([1]; 20 Dec. 2005): 5.48 el; patient's complaints ([1]; Patient L, 64, at the present time): no complaints; blood analyses ([1]; Patient L, 64, during treatment): positive change; pain experienced on urination ([2]; 40 days powder oral and 2% suppository): decreased in intensity; decrease of size of the prostate, ultrasound ([2]; after 40 days, before approximately 85 cm^3): 40%; recurrence of the cancer ([2]; over 2 years): No recurrence; prostate size, ultrasound ([2]; subsequent examination after further 2 weeks oral and enemas): approximately 35 cm^3; PSA ([2]; subsequent examination, before 49.9 ng/mL): 1 ng/mL
